Here are results for 15 molecules from patent US10011597B2 (APOGLYX AB, priority 2014, dated 2018).

Molecules are shown by their SMILES.

The IC50 is the concentration that gives 50% inhibition.

The assay addresses T1, human aquaporin 9 (Homo sapiens, UniProt O43315).
T1 construct: expressed in transfected cells; host or cells: Human AQP9 cell line with tetracycline added to the medium
T1 sequence (O43315 1-295): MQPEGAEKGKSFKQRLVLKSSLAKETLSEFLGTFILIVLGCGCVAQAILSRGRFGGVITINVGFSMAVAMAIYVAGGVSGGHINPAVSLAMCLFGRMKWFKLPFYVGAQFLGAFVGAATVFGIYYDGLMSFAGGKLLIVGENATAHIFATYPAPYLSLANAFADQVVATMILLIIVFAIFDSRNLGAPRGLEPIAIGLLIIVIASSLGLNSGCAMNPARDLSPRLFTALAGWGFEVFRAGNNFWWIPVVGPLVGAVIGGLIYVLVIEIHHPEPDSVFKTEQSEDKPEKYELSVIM
Kind of assay: Calcein quenching fluostar assay. In kind it is cell-based. Conditions: inhibition of human aquaporin 9; Human AQP9 cell line, tetracyclin-induced; 25° C. The procedure:
Calcein Quenching Fluostar Assay
A calcein quenching fluostar assay was performed in order to investigate the biological activity of the newly synthesized examples 1 to 57. This type of assay is disclosed in J. Biol. Chem., 2011, 286, 44319-44325 and Am. J. Physiol. Renal Physiol. (2010), 298, F224-230.
1) Two days prior to commencement of the assay, seed 10,000 cells/well of 96 well black clear bottom plate (Greiner Poly-lysin plate). A 1:1 mix of Dulbecco's Modified Eagle's Medium:Nutrient Mixture F-12 (DMEM: F12) was obtained from Gibco. Tetracycline stock of 5 mg/ml in 96% ethanol is used. Medium:DMEM/F12/10% Donor Bovine Serum, Human AQP9 cell line+1:270,000 tetracyclin, mouse AQP9 cell line+1:2,700,000 tetracycline.
2) Day of assay: Flick/slam off the medium and add 50 μl/well of loading solution: 5 ml DMEM/F12/10% Donor Bovine Serum, 25 μl Calcein AM—from freshly dissolved aliquot in 50 μl DMSO (VWR #734-1434), and 100 μl Probenecid.
3) Incubate the well for 90 minutes at 37° C.
4) Perform one wash with 75 μl wash buffer.
5) Add 75 μl of an example compound prepared in wash buffer per well.
Example compounds are prepared in 500 μl U bottom PP plates (NUNC). […] Substance in DMSO are added to row A; 180 μl of wash buffer+1% DMSO are added to rows B-H. 90 μl from row A are transferred and mixed with all other wells (up to row G) to make a 3-fold dilution series.
6) Assay in FLUOstar Optima at 25° C. Settings buffer addition at 135 μl seconds, add 75 μl/well, record time course for 30 seconds, add sucrose buffer 3.6 seconds into recording.
7) Normalization to initial in Excel.
8) Fit to “exponential decay” function in GraphPad Prism 5.0, then arrange half live shrinking values according to wells and fit dose-response curves.
Turning to `CCn1c(SCC(=O)Nc2nnc(-c3ccc(F)cc3)s2)nnc1-c1ccc(Cl)cc1` [Example 43, 2-{[5-(4-chlorophenyl)-4-ethyl-4H-1,2,4-triazol-3-yl]sulfanyl}-N-[5-(4-fluorophenyl)-1,3,4-thiadiazol-2-yl]acetamide], the half-inhibitory concentration (IC50) is 92 nM.

On to `O=C(CSc1nnc(-c2ccc(F)cc2)n1C1CC1)Nc1nnc(-c2ccc(F)cc2)s1` [Example 44, 2-{[4-cyclopropyl-5-(4-fluorophenyl)-4H-1,2,4-triazol-3-yl]sulfanyl}-N-[5-(4-fluorophenyl)-1,3,4-thiadiazol-2-yl]acetamide], for which the IC50 was 168 nM.

Consider `CCn1c(SCC(=O)Nc2nnc(-c3ccc(OC)c(F)c3)s2)nnc1-c1ccc(F)cc1` [Example 45, 2-{[4-ethyl-5-(4-fluorophenyl)-4H-1,2,4-triazol-3-yl]sulfanyl}-N-[5-(3-fluoro-4-methoxyphenyl)-1,3,4-thiadiazol-2-yl]acetamide], for which the half-inhibitory concentration (IC50) was 182 nM.

As to `CCn1c(SCC(=O)Nc2nnc(-c3ccc(F)c(F)c3)s2)nnc1-c1ccc(F)cc1` [Example 46, N-[5-(3,4-difluorophenyl)-1,3,4-thiadiazol-2-yl]-2-{[4-ethyl-5-(4-fluorophenyl)-4H-1,2,4-triazol-3-yl]sulfanyl}acetamide], the IC50 is 385 nM.

Turning to `CCn1c(SCC(=O)Nc2nnc(-c3ccc(C#N)cc3)s2)nnc1-c1ccc(F)cc1` [Example 47, N-[5-(4-cyanophenyl)-1,3,4-thiadiazol-2-yl]-2-{[4-ethyl-5-(4-fluorophenyl)-4H-1,2,4-triazol-3-yl]sulfanyl}acetamide], the IC50 is 114 nM.

Regarding `COC(=O)CCn1c(SCC(=O)Nc2nnc(-c3ccc(OC)cc3)s2)nnc1-c1ccccc1` [Example 48, Methyl 3-{3-[({[5-(4-methoxyphenyl)-1,3,4-thiadiazol-2-yl]carbamoyl}methyl)sulfanyl]-5-phenyl-4H-1,2,4-triazol-4-yl}propanoate], the IC50 was 117 nM.

Consider `COc1ccc(-c2nnc(NC(=O)CSc3nnc(-c4ccccc4)n3CCN)s2)cc1` [Example 49, 2-{[4-(2-aminoethyl)-5-phenyl-4H-1,2,4-triazol-3-yl]sulfanyl}-N-[5-(4-methoxyphenyl) 1,3,4 thiadiazol-2-yl]acetamide], for which the concentration for half-maximal inhibition (IC50) was 373 nM.

On to `COc1ccc(-c2nnc(NC(=O)CSc3nnc(-c4ccccc4)n3CC(N)=O)s2)cc1` [Example 50, 2-{[4-(carbamoylmethyl)-5-phenyl-4H-1,2,4-triazol-3-yl]sulfanyl}-N-[5-(4methoxyphenyl)-1,3,4-thiadiazol-2-yl]acetamide], for which the half-maximal inhibitory concentration (IC50) was 200 nM.

With `COc1ccc(-c2nnc(NC(=O)CSc3nnc(-c4ccccc4)n3CCCO)s2)cc1` [Example 51, 2-{[4-(3-hydroxypropyl)-5-phenyl-4H-1,2,4-triazol-3-yl]sulfanyl}-N-[5-(4-methoxyphenyl)-1,3,4-thiadiazol-2-yl]acetamide], the IC50 was 86 nM.

As for `COc1ccc(-c2nnc(NC(=O)CSc3nnc(-c4ccccc4)n3CCO)s2)cc1` [Example 52, 2-{[4-(3-hydroxyethyl)-5-phenyl-4H-1,2,4-triazol-3-yl]sulfanyl}-N-[5-(4-methoxyphenyl)-1,3,4-thiadiazol-2-yl]acetamide], the IC50 is 59 nM.

As to `CCn1c(SCC(=O)Nc2nnc(-c3ccc(S(C)(=O)=O)cc3)s2)nnc1-c1ccc(F)cc1` [Example 53, 2-{[4-ethyl-5-(4-fluorophenyl)-4H-1,2,4-triazol-3-yl]sulfanyl}-N-[5-(4-methanesulfonylphenyl)-1,3,4-thiadiazol-2-yl]acetamide], the IC50 is 134 nM.

As for `CCn1c(SCC(=O)Nc2nnc(-c3ccc(CS(C)(=O)=O)cc3)s2)nnc1-c1ccc(F)cc1` [Example 54, 2-{[4-ethyl-5-(4-fluorophenyl)-4H-1,2,4-triazol-3-yl]sulfanyl}-N-{5-[4-(methanesulfonylmethyl)phenyl]-1,3,4-thiadiazol-2-yl}acetamide], the 50% inhibitory concentration (IC50) was 901 nM.

For `CCn1c(SCC(=O)Nc2nnc(-c3ccc(SC)cc3)s2)nnc1-c1ccc(F)cc1` [Example 55, 2-{[4-ethyl-5-(4-fluorophenyl)-4H-1,2,4-triazol-3-yl]sulfanyl}-N-{5-[4-(methylsulfanyl)phenyl]-1,3,4-thiadiazol-2-yl}acetamid], the IC50 was 676 nM.

For the molecule `CCn1c(SCC(=O)Nc2nnc(-c3ccc(S(C)(=O)=O)cc3)s2)nnc1-c1ccncc1` [Example 56, 2-{[4-ethyl-5-(pyridin-4-yl)-4H-1,2,4-triazol-3-yl]sulfanyl}-N-[5-(4-methanesulfonylphenyl)-1,3,4-thiadiazol-2-yl]acetamid], the half-inhibitory concentration (IC50) is 151 nM.

For the molecule `CCn1c(SCC(=O)Nc2nnc(-c3ccc(S(C)(=O)=O)cc3)s2)nnc1-c1cccnc1` [Example 57, 2-{[4-ethyl-5-(pyridin-3-yl)-4H-1,2,4-triazol-3-yl]sulfanyl}-N-[5-(4-methanesulfonylphenyl)-1,3,4-thiadiazol-2-yl]acetamide], the IC50 is 133 nM.
